Data: patent US8431563B2 (priority 2010, dated 2013)
Where two headings read alike, the source gives them in different places.

Legend:
[1] = biological target: T1, interaction between glucokinase (GK) and glucokinase regulatory protein (GKRP) (Homo sapiens, UniProt Q14397); assay: biochemical; type: binding
T1 sequence (Q14397 1-625): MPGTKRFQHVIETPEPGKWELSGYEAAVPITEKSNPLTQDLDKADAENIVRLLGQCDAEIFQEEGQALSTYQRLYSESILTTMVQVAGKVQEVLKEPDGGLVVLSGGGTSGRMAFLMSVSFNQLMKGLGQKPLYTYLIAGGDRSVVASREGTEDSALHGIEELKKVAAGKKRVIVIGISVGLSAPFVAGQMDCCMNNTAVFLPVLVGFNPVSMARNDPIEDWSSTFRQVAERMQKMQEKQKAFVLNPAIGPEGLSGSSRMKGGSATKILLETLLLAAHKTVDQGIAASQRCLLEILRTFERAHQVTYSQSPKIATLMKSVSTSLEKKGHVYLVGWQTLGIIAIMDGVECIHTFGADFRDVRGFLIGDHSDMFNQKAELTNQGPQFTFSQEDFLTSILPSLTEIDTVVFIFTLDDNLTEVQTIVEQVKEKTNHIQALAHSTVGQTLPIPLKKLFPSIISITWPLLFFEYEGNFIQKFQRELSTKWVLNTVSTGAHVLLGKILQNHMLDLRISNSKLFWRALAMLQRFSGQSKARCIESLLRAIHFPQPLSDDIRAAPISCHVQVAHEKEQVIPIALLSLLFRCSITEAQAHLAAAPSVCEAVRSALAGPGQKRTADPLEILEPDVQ
Procedure, shortened: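 Avi-tagged human GKRP preincubated with compound for 20 min at room temperature, then 6 nM GK-fluorescein (concentration of added solution) introduced and incubated 2 h in the dark. Buffer: 20 mM Tris pH 7.5, 0.05% BSA, 1 mM DTT, 1 μM sorbitol-6-phosphate. Plate read on a fluorescence reader.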

[2] = biological target: T2, GKRP (Glucokinase Regulatory Protein) with human His-hepatic GK (Homo sapiens, UniProt Q14397); assay: biochemical
T2 sequence (Q14397 1-625): T1 sequence (Q14397 1-625)
Procedure, shortened: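 Human His-tagged hepatic GK (30 nM in the 5× working stock) in 50 mM Tris pH 7.5, 4 mM MgCl2, 6% DMSO with DTT, BSA and Brij-35. Enzyme was added after a 30 min step and reacted 30 min at room temperature. The reaction was stopped with acetonitrile and 13C-glucose-6-phosphate formed from 13C-glucose was quantified by LC MS/MS.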

[3] = avi-tagged GKRP, GK-fluorescein, AlphaScreen beads, read-out: GK-GKRP IC50 (Binding)
[4] = 13C-glucose-6-phosphate formation, 280 nM GKRP (10×), 30 nM GK (5×), read-out: GK-GKRP EC50 (LC MS/MS-2)

| SMILES | IC50 ([1]; GK-GKRP IC50 (Binding)) [nM] | EC50 ([2]; GK-GKRP EC50 (LC MS/MS-2)) [nM] | IC50 [1, 3] [nM] | EC50 [2, 4] [nM] | EC50 ([2]; GK-GKRP EC50 (LC MS/MS-2), 13C-glucose-6-phosphate formation, 280 nM GKRP (10×), 30 nM GK (5×)) [nM] |
| --- | --- | --- | --- | --- | --- |
| CC(O)(c1ccc(N2CCN(S(=O)(=O)c3cccs3)C[C@@H]2CN2C[C@H]3COC[C@H]3C2)cc1)C(F)(F)F (stereo partly drawn) [Example 123, 1,1,1-trifluoro-2-(4-((2S)-2-((3aR,6aS)-tetrahydro-1H-furo[3,4-c]pyrrol-5(3H)-ylmethyl)-4-(2-thiophenylsulfonyl)-1-piperazinyl)phenyl)-2-propanol] | 671 | 731 | – | – | – |
| Nc1ccc(S(=O)(=O)N2CCN(c3ccc(C(O)(C(F)(F)F)C(F)(F)F)cc3)[C@@H](CC3CCOCC3)C2)cn1 [Example 126, 2-(4-((2S)-4-((6-amino-3-pyridinyl)sulfonyl)-2-(tetrahydro-2H-pyran-4-ylmethyl)-1-piperazinyl)phenyl)-1,1,1,3,3,3-hexafluoro-2-propanol] | – | – | 22 | 37 | – |
| C[C@H]1COCCN1C[C@H]1CN(S(=O)(=O)c2ccc(N)nc2)CCN1c1ncc(C(O)(C(F)(F)F)C(F)(F)F)cn1 [Example 128, 2-(2-((2S)-4-((6-amino-3-pyridinyl)sulfonyl)-2-(((3S)-3-methyl-4-morpholinyl)methyl)-1-piperazinyl)-5-pyrimidinyl)-1,1,1,3,3,3-hexafluoro-2-propanol] | – | – | 27 | 34 | – |
| Nc1ccc(S(=O)(=O)N2CCN(c3ncc(C(O)(C(F)(F)F)C(F)(F)F)cn3)[C@@H](CC3CCOCC3)C2)cn1 [Example 130, 2-(2-((2S)-4-((6-amino-3-pyridinyl)sulfonyl)-2-(tetrahydro-2H-pyran-4-ylmethyl)-1-piperazinyl)-5-pyrimidinyl)-1,1,1,3,3,3-hexafluoro-2-propanol] | – | – | 62 | 134 | – |
| Nc1ccc(S(=O)(=O)N2CCN(c3ncc(C(O)(C(F)(F)F)C(F)(F)F)cn3)[C@@H](CC3CCOCC3)C2)s1 [Example 133, 2-(2-((2S)-4-((5-amino-2-thiophenyl)sulfonyl)-2-(tetrahydro-2H-pyran-4-ylmethyl)-1-piperazinyl)-5-pyrimidinyl)-1,1,1,3,3,3-hexafluoro-2-propanol] | – | – | 47 | – | 59 |
| O=S(=O)(c1cccs1)N1CCN(c2ncc(C(O)(C(F)(F)F)C(F)(F)F)cn2)[C@@H](CC2CCOCC2)C1 [Example 134, 1,1,1,3,3,3-hexafluoro-2-(2-((2S)-2-(tetrahydro-2H-pyran-4-ylmethyl)-4-(2-thiophenylsulfonyl)-1-piperazinyl)-5-pyrimidinyl)-2-propanol] | – | – | 122 | 79 | – |
| C[C@H]1CN(S(=O)(=O)c2nccs2)CCN1c1ncc(C(O)(C(F)(F)F)C(F)(F)F)cn1 [Example 146, 1,1,1,3,3,3-hexafluoro-2-(2-((2S)-2-methyl-4-(1,3-thiazol-2-ylsulfonyl)-1-piperazinyl)-5-pyrimidinyl)-2-propanol] | – | – | 630 | 867 | – |
| C[C@H]1CN(S(=O)(=O)c2ccc(N)s2)CCN1c1ccc(C(O)(C(F)(F)F)C(F)(F)F)cc1 [Example 149, 2-(4-((2S)-4-((5-amino-2-thiophenyl)sulfonyl)-2-methyl-1-piperazinyl)phenyl)-1,1,1,3,3,3-hexafluoro-2-propanol] | – | – | 450 | 109 | – |
| O=S(=O)(c1cccs1)N1CCN(c2ccc(C(O)(C(F)(F)F)C(F)(F)F)cc2C#CCCO)CC1 [Example 150, 4-(2-(4-(2-thiophenylsulfonyl)-1-piperazinyl)-5-(2,2,2-trifluoro-1-hydroxy-1-(trifluoromethyl)ethyl)phenyl)-3-butyn-1-ol] | – | – | 656 | 895 | – |
| O=S(=O)(c1cccs1)N1CCN(c2ccc(C(O)(C(F)(F)F)C(F)(F)F)cc2C#CCO)CC1 [Example 152, 3-(2-(4-(2-thiophenylsulfonyl)-1-piperazinyl)-5-(2,2,2-trifluoro-1-hydroxy-1-(trifluoromethyl)ethyl)phenyl)-2-propyn-1-ol] | – | – | 712 | 557 | – |
| COCC#Cc1cc(C(O)(C(F)(F)F)C(F)(F)F)ccc1N1CCN(S(=O)(=O)c2cccs2)CC1 [Example 153, 1,1,1,3,3,3-hexafluoro-2-(3-(3-methoxyprop-1-YNYL)-4-(4-(thiophen-2-ylsulfonyl)piperazin-1-yl)phenyl)propan-2-ol] | – | – | 363 | 675 | – |
| CS(=O)(=O)NCC#Cc1cc(C(O)(C(F)(F)F)C(F)(F)F)ccc1N1CCN(S(=O)(=O)c2cccs2)CC1 [Example 160, N-(3-(2-(4-(2-thiophenylsulfonyl)-1-piperazinyl)-5-(2,2,2-trifluoro-1-hydroxy-1-(trifluoromethyl)ethyl)phenyl)-2-propyn-1-yl)methanesulfonamide] | – | – | 783 | 412 | – |
| C[C@H]1CN(S(=O)(=O)c2ccccc2N)CCN1c1ncc(C(O)(C(F)(F)F)C(F)(F)F)cn1 [Example 167, (S)-2-(2-(4-(2-aminophenylsulfonyl)-2-methylpiperazin-1-yl)pyrimidin-5-yl)-1,1,1,3,3,3-hexafluoro-2-propanol] | – | – | 508 | 516 | – |
| C[C@H]1CN(S(=O)(=O)c2ccccc2N)CCN1c1ccc(C(O)(C(F)(F)F)C(F)(F)F)cc1 [Example 168, 2-(4-((2S)-4-((2-aminophenyl)sulfonyl)-2-methyl-1-piperazinyl)phenyl)-1,1,1,3,3,3-hexafluoro-2-propanol] | – | – | 660 | 533 | – |
| CC(O)(c1ccc(N2CCN(S(=O)(=O)c3cccs3)C[C@@H]2CN(C2CCC2)S(C)(=O)=O)cc1)C(F)(F)F (stereo partly drawn) [Example 212, N-cyclobutyl-N-(((2R)-4-(2-thiophenylsulfonyl)-1-(4-(2,2,2-trifluoro-1-hydroxy-1-methylethyl)phenyl)-2-piperazinyl)methyl) methanesulfonamide] | – | – | 68 | 92 | – |
| CC1(C)C(=O)NCCN1C[C@H]1CN(S(=O)(=O)c2cccs2)CCN1c1ncc(C(O)(C(F)(F)F)C(F)(F)F)cn1 [Example 226, 3,3-dimethyl-4-(((2S)-4-(2-thiophenylsulfonyl)-1-(5-(2,2,2-trifluoro-1-hydroxy-1-(trifluoromethyl)ethyl)-2-pyrimidinyl)-2-piperazinyl)methyl)-2-piperazinone] | – | – | 6 | 14 | – |
| CC1(C)C(=O)NCCN1C[C@H]1CN(S(=O)(=O)c2ccc(N)s2)CCN1c1ncc(C(O)(C(F)(F)F)C(F)(F)F)cn1 [Example 227, (S)-4-((4-((5-aminothiophen-2-yl)sulfonyl)-1-(5-(1,1,1,3,3,3-hexafluoro-2-hydroxypropan-2-yl)pyrimidin-2-yl)piperazin-2-yl)methyl)-3,3-dimethylpiperazin-2-one] | – | – | 2 | 21 | – |
| CC(C)CN(C[C@H]1CN(S(=O)(=O)c2ccc(N)s2)CCN1c1ncc(C(O)(C(F)(F)F)C(F)(F)F)cn1)S(C)(=O)=O [Example 229, N-(((2S)-4-((5-amino-2-thiophenyl)sulfonyl)-1-(5-(2,2,2-trifluoro-1-hydroxy-1-(trifluoromethyl)ethyl)-2-pyrimidinyl)-2-piperazinyl)methyl)-N-(2-methylpropyl)methanesulfonamide] | – | – | 1 | 13 | – |
| CC(C)CN(C[C@H]1CN(S(=O)(=O)c2cccnc2N)CCN1c1ncc(C(O)(C(F)(F)F)C(F)(F)F)cn1)S(C)(=O)=O [Example 230 (2-amino-3-pyridinyl), N-(((2S)-4-((2-amino-3-pyridinyl)sulfonyl)-1-(5-(2,2,2-trifluoro-1-hydroxy-1-(trifluoromethyl)ethyl)-2-pyrimidinyl)-2-piperazinyl)methyl)-N-(2-methylpropyl)methanesulfonamide] | – | – | 64 | 95 | – |
| CC(C)CN(C[C@H]1CN(S(=O)(=O)c2ccc(N)nc2)CCN1c1ncc(C(O)(C(F)(F)F)C(F)(F)F)cn1)S(C)(=O)=O [Example 230 (6-amino-3-pyridinyl), N-(((2S)-4-((6-amino-3-pyridinyl)sulfonyl)-1-(5-(2,2,2-trifluoro-1-hydroxy-1-(trifluoromethyl)ethyl)-2-pyrimidinyl)-2-piperazinyl)methyl)-N-(2-methylpropyl)methanesulfonamide] | – | – | 1 | 11 | – |
| CC(C)N(C[C@H]1CN(S(=O)(=O)c2ccc(N)s2)CCN1c1ncc(C(O)(C(F)(F)F)C(F)(F)F)cn1)S(C)(=O)=O [Example 231, N-(((2R)-4-((5-amino-2-thiophenyl)sulfonyl)-1-(5-(2,2,2-trifluoro-1-hydroxy-1-(trifluoromethyl)ethyl)-2-pyrimidinyl)-2-piperazinyl)methyl)-N-(1-methylethyl)methanesulfonamide] | – | – | 7 | 20 | – |
